Reference: patent US20260315434A1, “USE OF GUAIACOL SESQUITERPENE LACTONE DERIVATIVES” (NANJING UNIVERSITY OF CHINESE MEDICINE, priority 2023, published 2026)

Columns and labels:
[1] = system: renal injury markers (Ngal, Havcr1) in kidney tissue; assay: Unilateral ureteral ligation (UUO) chronic kidney injury, renal injury marker mRNA; assay type: in vivo, C57BL/6 mice; set-up: unit not given here; conditions: UUO chronic model
Text: (§1) Chronic Kidney Injury: Mice were randomly divided into five groups. […] Except for the sham-operated mice in the normal group (where only the left ureter was exposed without further manipulation), all other mice underwent unilateral ureteral ligation to establish a chronic kidney injury model as follows: The abdominal skin was disinfected with iodine solution followed by alcohol. An incision was made, and the abdominal layers were dissected sequentially. The left ureter was fully exposed and dissected. A double ligation was performed at the bladder-proximal end of the left ureter using absorbable suture material, followed by closure.
(§2) The blood was allowed to stand at room temperature for 2 hours, then centrifuged at 3000 rpm for 20 minutes. Serum was aspirated, aliquoted, and stored at −70° C. for future use. Following blood collection, euthanize mice by cervical dislocation. Perform laparotomy to remove kidneys, dissect out perirenal fat and capsules. […] Paraffin-embedded specimens undergo HE staining; remaining tissue is stored at −70° C. for future use.

[2] = system: inflammatory cytokines (TNF, IL-6, IL-1) in renal tissue; assay: UUO chronic kidney injury, renal inflammatory factor mRNA; assay type: in vivo, C57BL/6 mice; set-up: unit not given here; conditions: UUO chronic model
Text: as §1, §2

[3] = system: inflammatory cytokines (TNF, IL-6, IL-1) in renal tissue; assay: Folic acid-induced acute kidney injury, renal inflammatory factor mRNA; assay type: in vivo, C57BL/6 mice; conditions: folic acid acute model
Experimental: (§3) Except for the normal group, all other mice were administered folic acid (250 mg/kg) dissolved in 0.9% NaHCO3 solution via intraperitoneal injection to establish an acute kidney injury model.
as §2

[4] = Conversion (release) of prodrug salts to parent compound in mouse plasma; assay type: in vitro ADME; conditions: 37 °C
How it was run: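 Salts (0.6 mg in 250 μL water) were mixed 1:1 with heparinized mouse plasma or HEPES pH 7.4 and incubated at 37 °C. Samples were methanol-quenched and taken at 1–12 h. Parent compound was quantified by C18 HPLC-UV at 210 nm using peak areas.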

[5] = system: fibrosis-related factors (α-Sma, Col1a1, Tgfb1) in kidney tissue; assay: Folic acid-induced kidney injury, renal fibrosis-related factor mRNA; assay type: in vivo, C57BL/6 mice; conditions: folic acid model
Experimental: as §3, §2

[6] = system: fibrosis-related factors (α-Sma, Col1a1, Tgfb1) in kidney tissue; assay: UUO chronic kidney injury, renal fibrosis-related factor mRNA; assay type: in vivo, C57BL/6 mice; set-up: unit not given here; conditions: UUO chronic model
Text: as §1, §2

[7] = system: renal injury markers (Ngal, Havcr1) in kidney tissue; assay: Folic acid-induced acute kidney injury, renal injury marker mRNA; assay type: in vivo, C57BL/6 mice; set-up: scale not given here; conditions: folic acid acute model
Experimental: as §3, §2

Hepa1-6 cells = assay: Antitumor effect in Hepa1-6 mouse hepatocellular carcinoma subcutaneous xenograft model; assay type: in vivo, C57BL/6 mice
MDSCs = assay: Proportion of MDSCs in tumor and spleen of H22 xenograft mice (flow cytometry); assay type: in vivo, BALB/c mice; conditions: for Spleen MDSCs (%) / Tumor-associated MDSCs (%): 40 μmol/kg/day, oral, 2 weeks, flow cytometry
Experimental: Once all tumors were dissected, nail-sized tumor pieces were transferred to 1.5 mL Eppendorf tubes and minced with scissors. Transfer the minced tumor tissue suspension to a 15 mL centrifuge tube containing 3-5 mL of digestive enzymes (Collagenase IV 1 mg/mL, Hyaluronidase 1 mg/mL, DNase 120 U/mL). Incubate at 200 rpm and 37° C. for 1 hour. After digestion, pass the mixture through a 200-mesh sieve to obtain the tumor cell suspension. Centrifuge the resulting tumor suspension at 1600 rpm for 5 min, aspirate the supernatant, resuspend cells in 1 mL of 1×PBS per tube. Transfer the cell suspension to a 1.5 mL Eppendorf tube, centrifuge at 1600 rpm for 5 min, remove the supernatant, resuspend cells in 100 μL of 1×PBS per tube, add 1 μL of dead/live dye to each tube, mix thoroughly, and incubate at room temperature in the dark for 15 min. […] Position the spleen on a 200-mesh cell strainer. Gently press the spleen using a 10 mL syringe needle. […] Transfer the washed splenocyte suspension into a 15 mL centrifuge tube. Centrifuge at 1600 rpm for 5 min to collect cells. Wash once with 1×PBS. Add 3 mL red blood cell lysis buffer (diluted with ddH2O) to each tube and incubate for 5 min. After lysis, add 10 mL 1×PBS to each tube to terminate lysis. Centrifuge at 1600 rpm for 5 min. Add 1 mL 1×PBS to each 15 mL centrifuge tube, transfer to 1.5 mL EP tubes, and centrifuge at 1600 rpm for 5 min. Add 1 mL 1×PBS to each tube containing stained tumor cells and lysed spleen cells for one wash, centrifuge at 1600 rpm for 5 min, and remove the supernatant. Resuspend tumor cells and spleen cells separately in 100 μL 1×PBS. Add 1 μL FcX™ antibody to each tube and incubate at room temperature in the dark for 10 min. After incubation, sequentially add 1 μL each of CD45, CD11b, Gr1 antibodies. Incubate at 4° C. in the dark for 30 min. After incubation, wash once with 1×PBS, discard the supernatant, resuspend cells in 300 μL 1×PBS, filter the membrane into a flow cytometry tube, and proceed to instrument analysis.

[8] = compared with solvent control, result in words

CN(C)C[C@@H]1C(=O)O[C@H]2[C@H]1CC[C@@]1(C)C[C@]13CC[C@@](C)(O)[C@H]23 [Compound 21]
Havcr1 mRNA expression, kidney ([1]; 0.1 mg/kg oral): 11.90 ± 4.52 | Ngal mRNA expression, kidney ([1]; 0.1 mg/kg oral): 35.77 ± 7.67 | Havcr1 mRNA expression, kidney ([1]; 1 mg/kg oral, 1 mg/kg): 7.25 ± 0.80 | Ngal mRNA expression, kidney ([1]; 1 mg/kg oral, 1 mg/kg): 19.42 ± 1.55 | Il1 mRNA expression, kidney ([2]; 0.1 mg/kg oral): 5.32 ± 0.56 | Il6 mRNA expression, kidney ([2]; 0.1 mg/kg oral): 14.31 ± 6.01 | Tnf mRNA expression, kidney ([2]; 0.1 mg/kg oral): 7.10 ± 1.93 | Il1 mRNA expression, kidney ([2]; 1 mg/kg oral, 1 mg/kg): 3.55 ± 0.50 | Il6 mRNA expression, kidney ([2]; 1 mg/kg oral, 1 mg/kg): 5.61 ± 2.10 | Tnf mRNA expression, kidney ([2]; 1 mg/kg oral, 1 mg/kg): 7.53 ± 0.68 | Il1 mRNA expression, kidney ([3]; 0.1 mg/kg oral): 2.07 ± 0.38 | Il6 mRNA expression, kidney ([3]; 0.1 mg/kg oral): 6.47 ± 0.53 | Tnf mRNA expression, kidney ([3]; 0.1 mg/kg oral): 2.60 ± 0.62 | Il1 mRNA expression, kidney ([3]; 1 mg/kg oral, 1 mg/kg): 1.45 ± 0.23 | Il6 mRNA expression, kidney ([3]; 1 mg/kg oral, 1 mg/kg): 5.61 ± 2.10 | Tnf mRNA expression, kidney ([3]; 1 mg/kg oral, 1 mg/kg): 2.42 ± 0.35 | Release rate (conversion to Compound 1) ([4]; 1 h, 60 min): 5.4% | Release rate (conversion to Compound 1) ([4]; 2 h, 120 min): 10.7% | Release rate (conversion to Compound 1) ([4]; 4 h, 240 min): 17.9% | Release rate (conversion to Compound 1) ([4]; 8 h, 480 min): 39.3% | Release rate (conversion to Compound 1) ([4]; 12 h, 720 min): 55.4% | Col1a1 mRNA expression, kidney ([5]; 0.1 mg/kg oral): 1.58 ± 0.35 | Tgfb1 mRNA expression, kidney ([5]; 0.1 mg/kg oral): 1.64 ± 0.16 | α-Sma mRNA expression, kidney ([5]; 0.1 mg/kg oral): 1.80 ± 0.42 | Col1a1 mRNA expression, kidney ([5]; 1 mg/kg oral, 1 mg/kg): 1.20 ± 0.19 | Tgfb1 mRNA expression, kidney ([5]; 1 mg/kg oral, 1 mg/kg): 1.09 ± 0.15 | α-Sma mRNA expression, kidney ([5]; 1 mg/kg oral, 1 mg/kg): 0.90 ± 0.21 | Col1a1 mRNA expression, kidney ([6]; 0.1 mg/kg oral): 11.79 ± 1.18 | Tgfb1 mRNA expression, kidney ([6]; 0.1 mg/kg oral): 1.76 ± 0.05 | α-Sma mRNA expression, kidney ([6]; 0.1 mg/kg oral): 2.02 ± 0.39 | Col1a1 mRNA expression, kidney ([6]; 1 mg/kg oral, 1 mg/kg): 8.27 ± 1.15 | Tgfb1 mRNA expression, kidney ([6]; 1 mg/kg oral, 1 mg/kg): 1.53 ± 0.14 | α-Sma mRNA expression, kidney ([6]; 1 mg/kg oral, 1 mg/kg): 1.39 ± 0.04 | Havcr1 mRNA expression, kidney ([7]; 0.1 mg/kg oral): 170.08 ± 33.10 | Ngal mRNA expression, kidney ([7]; 0.1 mg/kg oral): 25.75 ± 2.80 | Havcr1 mRNA expression, kidney ([7]; 1 mg/kg oral, 1 mg/kg): 83.11 ± 16.85 | Ngal mRNA expression, kidney ([7]; 1 mg/kg oral, 1 mg/kg): 13.08 ± 2.41

C=C1C(=O)O[C@@H]2[C@H]3C(C)=CC[C@@]34O[C@@]4(C)CC[C@@H]12 [Arg, Arglabin, reference compound]
Tumor weight (Hepa1-6 cells; mouse, in vivo, po): 0.04 ± 0.03 g | proportion of MDSCs in tumor tissues and spleens (MDSCs; mouse, in vivo): significantly reduced

CN(C)C[C@@H]1C(=O)O[C@H]2[C@H]1CC[C@@]1(C)C[C@]13CC[C@@](C)(O)[C@H]23 [Compound 20]
Havcr1 mRNA expression, kidney ([1]; 1 mg/kg oral, 1 mg/kg): 6.29 ± 2.43 | Ngal mRNA expression, kidney ([1]; 1 mg/kg oral, 1 mg/kg): 16.14 ± 2.74 | Spleen MDSCs (%) (MDSCs): 23.10 ± 5.35 % | Tumor-associated MDSCs (%) (MDSCs): 7.86 ± 6.19 % | proportion of MDSCs in tumor tissues and spleens (MDSCs; [8]): significantly reduced | Il1 mRNA expression, kidney ([2]; 1 mg/kg oral, 1 mg/kg): 2.77 ± 0.40 | Il6 mRNA expression, kidney ([2]; 1 mg/kg oral, 1 mg/kg): 3.69 ± 1.26 | Tnf mRNA expression, kidney ([2]; 1 mg/kg oral, 1 mg/kg): 5.09 ± 0.66 | Il1 mRNA expression, kidney ([3]; 1 mg/kg oral, 1 mg/kg): 1.06 ± 0.33 | Il6 mRNA expression, kidney ([3]; 1 mg/kg oral, 1 mg/kg): 1.55 ± 0.28 | Tnf mRNA expression, kidney ([3]; 1 mg/kg oral, 1 mg/kg): 2.31 ± 0.72 | Release rate (conversion to Compound 1) ([4]; 1 h, 60 min): 7.3% | Release rate (conversion to Compound 1) ([4]; 2 h, 120 min): 12.9% | Release rate (conversion to Compound 1) ([4]; 4 h, 240 min): 28.6% | Release rate (conversion to Compound 1) ([4]; 8 h, 480 min): 46.8% | Release rate (conversion to Compound 1) ([4]; 12 h, 720 min): 62.9% | Col1a1 mRNA expression, kidney ([5]; 1 mg/kg oral, 1 mg/kg): 1.18 ± 0.15 | Tgfb1 mRNA expression, kidney ([5]; 1 mg/kg oral, 1 mg/kg): 0.98 ± 0.27 | α-Sma mRNA expression, kidney ([5]; 1 mg/kg oral, 1 mg/kg): 1.11 ± 0.17 | Col1a1 mRNA expression, kidney ([6]; 1 mg/kg oral, 1 mg/kg): 7.30 ± 0.90 | Tgfb1 mRNA expression, kidney ([6]; 1 mg/kg oral, 1 mg/kg): 1.44 ± 0.21 | α-Sma mRNA expression, kidney ([6]; 1 mg/kg oral, 1 mg/kg): 1.26 ± 0.18 | Havcr1 mRNA expression, kidney ([7]; 1 mg/kg oral, 1 mg/kg): 62.86 ± 12.20 | Ngal mRNA expression, kidney ([7]; 1 mg/kg oral, 1 mg/kg): 13.05 ± 1.82

CC1=C2CC[C@@](C)(OC(=O)N3CCCCC3)[C@@H]2[C@H]2OC(=O)[C@@H](CN(C)C)[C@@H]2CC1 [Compound 102]
Tumor Inhibition Rate (Hepa1-6 cells; 40 μmol/kg/d oral, 2 weeks): 96.67% | Tumor weight (Hepa1-6 cells; 40 μmol/kg/d oral, 2 weeks, solvent 0.92 ± 1.41): 0.03 ± 0.04 g | Spleen MDSCs (%) (MDSCs): 30.37 ± 9.84 % | Tumor-associated MDSCs (%) (MDSCs): 32.11 ± 6.33 % | proportion of MDSCs in tumor tissues and spleens (MDSCs; [8]): significantly reduced | metabolised at 1 h ([4]; mouse, plasma, 1 h, read-out: Release rate (conversion to Compound 83)): 6.6% | metabolised at 2 h ([4]; mouse, plasma, 2 h, read-out: Release rate (conversion to Compound 83)): 14% | metabolised at 4 h ([4]; mouse, plasma, 4 h, read-out: Release rate (conversion to Compound 83)): 26% | metabolised at 8 h ([4]; mouse, plasma, 8 h, read-out: Release rate (conversion to Compound 83)): 42.4% | metabolised at 12 h ([4]; mouse, plasma, 12 h, read-out: Release rate (conversion to Compound 83)): 47.8%
